Measured values published in patent US20190124918A1, “BIOFILM FORMATION INHIBITOR AND BIOFILM FORMATION INHIBITING COMPOSITION” (KAO CORPORATION, priority 2016, published 2019).

Tests used:
Format in all cases: cell-based
[1] = system: biofilm-forming microbe isolated from cooling water taken from a water cooling tower; assay: Biofilm inhibition test, quinone-based compound and organic solvent (OD570); details: for OD570: alone or added as test solution in Diacetone alcohol, no addition gave 2.15
Method: A biofilm-forming microbe (microbe providing a OD570 value of 0.3 or more in the test for determining the amount of biofilm in the following section 4-3) isolated from cooling water taken from a water cooling tower was cultured in R2A culture medium at 30° C. for 16 hours while shaking. The turbidity (OD600) of the resultant culture solution was measured. The culture solution was diluted with R2A culture medium to prepare a suspension of 10^3 cfu/mL.
The suspension of a test microbe prepared in the above section 4-1) was added in individual wells of a 96 well microplate in an amount of 150 μL. Thereafter, the test solution prepared in the above section 2) was add and culture was initiated.
The 96 well microplate was subjected to stationary culture performed at 30° C. for 48 hours. The culture solution was removed and the resultant microplate was washed with water. Subsequently, each well was stained with 0.1% crystal violet and 200 μL of ethanol was added. The absorbance (OD570) was measured to obtain the amount of biofilm (BF) formed.

[2] = system: Pseudomonas PAO1 strain (ATCC 15692); assay: Amount of biofilm formed (crystal violet, OD570), 96-well microplate culture; details: Pseudomonas, read-out: BF inhibition (%); for inhibition at 5 ppm: final concentration 5 ppm; for inhibition at 9 ppm: final concentration 9 ppm; for inhibition at 18 ppm: final concentration 18 ppm; for inhibition at 27 ppm: final concentration 27 ppm; for inhibition at 32 ppm: final concentration 32 ppm; for inhibition at 37 ppm: final concentration 37 ppm; for inhibition at 22 ppm: final concentration 22 ppm; for inhibition at 44 ppm: final concentration 44 ppm
Method: Pseudomonas PAO1 strain (ATCC 15692) was subjected to stationary culture performed in LB culture medium (Lysogeny Broth; manufactured by Becton Dickinson) at 37° C. for 24 hours. The turbidity (OD600) of the culture solution was measured. The culture solution was diluted with Mueller Hinton Broth (BBL made) to prepare a suspension (15 mL) having a turbidity (OD600) of 1/10^6. […]
(§1) Growth inhibition rates relative to the control (ethanol alone) were calculated based on OD600 values measured and in accordance with the following expression. In addition, biofilm (BF) formation inhibition rates relative to the control (ethanol alone) were calculated based on OD570 values and in accordance with the following expression:
BF inhibition (%)={1−(compound addition group OD570/control group OD570)}×100
(§2) As a control, an ethanol solvent alone was used (EtOH control). The concentrations of test compounds in the ethanol solution were as follows: test compound 1: 20 mM, test compounds 2 to 7: 100 mM. To each of the wells of a 96-well microplate (351172; manufactured by Japan Becton Dickinson), 6 μL of DMSO (Tokyo Kasei) and an ethanol solution of each test compound (1 to 8 μL) were added and then the microplates were allowed to stand still at room temperature for 5 hours to evaporate ethanol. A suspension solution of a Pseudomonas microbe prepared in the same procedure as in Test Example 1, 1) was added in an amount of 145 μL per well and culture was initiated.
(§3) After the 96-well microplate was subjected to stationary culture at 30° C. for 24 hours, turbidity (OD600) was measured to check growth. Subsequently, individual wells were stained with 0.1% crystal violet and thoroughly washed twice with physiological saline. To each well, 200 μL of ethanol was added and the absorbance (OD570) was measured to obtain the amount of the biofilm formed. The growth inhibition rate and biofilm (BF) formation inhibition rate were calculated based on OD600 and OD570 values measured and in accordance with the expressions used in Test Example 2.

[3] = system: Pseudomonas PAO1 strain (ATCC 15692); assay: Growth of test microbe (turbidity OD600), 96-well microplate culture; details: Pseudomonas; for inhibition at 5 ppm: final concentration 5 ppm; for inhibition at 9 ppm: final concentration 9 ppm; for inhibition at 18 ppm: final concentration 18 ppm; for inhibition at 27 ppm: final concentration 27 ppm; for inhibition at 32 ppm: final concentration 32 ppm; for inhibition at 37 ppm: final concentration 37 ppm; for inhibition at 22 ppm: final concentration 22 ppm; for inhibition at 44 ppm: final concentration 44 ppm
Method: Pseudomonas PAO1 strain (ATCC 15692) was subjected to stationary culture performed in LB culture medium (Lysogeny Broth; manufactured by Becton Dickinson) at 37° C. for 24 hours. The turbidity (OD600) of the culture solution was measured. The culture solution was diluted with Mueller Hinton Broth (BBL made) to prepare a suspension (15 mL) having a turbidity (OD600) of 1/10^6.
To each of the wells of a 96-well microplate (351172; manufactured by Japan Becton Dickinson), 6 μL of DMSO (Tokyo Chemical Industry Co. Ltd) and an ethanol solution (1 μL, 3 μL or 5 μL) of a test compound were added. After that, the microplate was allowed to stand still at room temperature for 5 hours to evaporate ethanol. The suspension of Pseudomonas microbe prepared in the above step 1) was added in an amount of 145 μL per well and culture was initiated. As the test compound, 2-methylhydroquinone (Sigma Aldrich) and p-toluquinone (Tokyo Kasei) were used. As a reference compound, sodium hypochlorite (manufactured by Wako Pure Chemical Industries Ltd.) was used. As a control, an ethanol solvent (EtOH control) alone was used. The concentration of the test compound in the ethanol solution is 1,000 ppm or 10,000 ppm and the final concentration of the test compound in the culture solution was about from 7 to 333 ppm.
After the 96-well microplate was subjected to stationary culture performed at 30° C. for 24 hours, turbidity (OD600) was measured to check growth. Subsequently, individual wells were stained with 0.1% crystal violet and thoroughly washed twice with physiological saline. To each well, 200 μL of ethanol was added and the absorbance (OD570) was measured to obtain the amount of the biofilm formed.
Compounds listed in Table 3 were each added to a test microbe and culture was conducted by the same procedure as in Test Example 1 and the amount of growth (OD600) and the amount of biofilm formed (OD570) were measured. For compounds a, b, c, f, h, i, J and k, 20 mM ethanol solutions were prepared; whereas for compounds d, e, g, 5 mM ethanol solutions were prepared. The solutions were each added to a 96-well microplate in an amount of 1 to 8 μL and evaluation was made. The final concentrations of the individual compounds are described in Table 3.
as §1
Growth inhibition (%)=(1−(compound addition group OD600/control group OD600))×100
as §2, §3

CCCCCCc1ccc(O)cc1O [4-Hexylresorcinol]
OD570 ([1]; 4-Hexylresorcinol 10 ppm): 1.49
OD570 ([1]; 4-Hexylresorcinol 20 ppm): 0.10

Cc1cc(O)cc(C)c1O [d, 2,6-Dimethylhydroquinone]
inhibition at 5 ppm [2]: 12.7%
inhibition at 9 ppm [2]: 11.2%
inhibition at 18 ppm [2]: < 0%
inhibition at 27 ppm [2]: 6.3%
inhibition at 32 ppm [2]: 17.8%
inhibition at 37 ppm [2]: 31.9%
inhibition at 5 ppm [3]: < 0%
inhibition at 9 ppm [3]: 6.3%
inhibition at 18 ppm [3]: 0.8%
inhibition at 27 ppm [3]: 6.6%
inhibition at 32 ppm [3]: 14%
inhibition at 37 ppm [3]: 5.4%

OCCOCCO [diethylene glycol]
decrease of BF formation inhibitory effect of the quinone-based compound by the organic solvent (in words) ([1]; from the results in Table 13, among the organic solvents tested): lowest

Cc1c(O)ccc(O)c1C [e, 2,3-Dimethylhydroquinone]
inhibition at 5 ppm [2]: < 0%
inhibition at 9 ppm [2]: < 0%
inhibition at 18 ppm [2]: < 0%
inhibition at 27 ppm [2]: 2.4%
inhibition at 32 ppm [2]: 17.8%
inhibition at 37 ppm [2]: 31.1%
inhibition at 5 ppm [3]: < 0%
inhibition at 9 ppm [3]: 13.1%
inhibition at 18 ppm [3]: 0.8%
inhibition at 27 ppm [3]: < 0%
inhibition at 32 ppm [3]: 14%
inhibition at 37 ppm [3]: 5.4%

CCc1cc(O)ccc1O [f, Ethylquinol]
inhibition at 18 ppm [2]: 18.6%
inhibition at 37 ppm [2]: 31.1%
inhibition at 74 ppm ([2]; final concentration 74 ppm): 40.6%
inhibition at 110 ppm ([2]; final concentration 110 ppm): 50.8%
inhibition at 129 ppm ([2]; final concentration 129 ppm): 75.4%
inhibition at 147 ppm ([2]; final concentration 147 ppm): 78.9%
inhibition at 18 ppm [3]: 2.1%
inhibition at 37 ppm [3]: 5.5%
inhibition at 74 ppm ([3]; final concentration 74 ppm): < 0%
inhibition at 110 ppm ([3]; final concentration 110 ppm): < 0%
inhibition at 129 ppm ([3]; final concentration 129 ppm): < 0%
inhibition at 147 ppm ([3]; final concentration 147 ppm): < 0%

Cc1cc(O)c(C)c(C)c1O [g, 2,3,5-Trimethylhydroquinone]
inhibition at 5 ppm [2]: 45.5%
inhibition at 10 ppm ([2]; final concentration 10 ppm): 42.2%
inhibition at 20 ppm ([2]; final concentration 20 ppm): 48%
inhibition at 30 ppm ([2]; final concentration 30 ppm): 54.7%
inhibition at 35 ppm ([2]; final concentration 35 ppm): 93.9%
inhibition at 41 ppm ([2]; final concentration 41 ppm): 90.4%
inhibition at 5 ppm [3]: < 0%
inhibition at 10 ppm ([3]; final concentration 10 ppm): < 0%
inhibition at 20 ppm ([3]; final concentration 20 ppm): 0.1%
inhibition at 30 ppm ([3]; final concentration 30 ppm): 65.8%
inhibition at 35 ppm ([3]; final concentration 35 ppm): 67.5%
inhibition at 41 ppm ([3]; final concentration 41 ppm): 68.5%

Oc1ccc(O)c(O)c1 [h, Hydroxyhydroquinone]
inhibition at 17 ppm ([2]; final concentration 17 ppm): 78.2%
inhibition at 34 ppm ([2]; final concentration 34 ppm): 96.2%
inhibition at 67 ppm ([2]; final concentration 67 ppm): 96.1%
inhibition at 101 ppm ([2]; final concentration 101 ppm): 96.3%
inhibition at 118 ppm ([2]; final concentration 118 ppm): 96.3%
inhibition at 134 ppm ([2]; final concentration 134 ppm): 96.4%
inhibition at 17 ppm ([3]; final concentration 17 ppm): 46.2%
inhibition at 34 ppm ([3]; final concentration 34 ppm): 18%
inhibition at 67 ppm ([3]; final concentration 67 ppm): 7.2%
inhibition at 101 ppm ([3]; final concentration 101 ppm): 1.7%
inhibition at 118 ppm ([3]; final concentration 118 ppm): 2%
inhibition at 134 ppm ([3]; final concentration 134 ppm): 5.4%

CC1=CC(=O)C=C(C)C1=O [i, 3,5-Dimethylbenzoquinone]
inhibition at 18 ppm [2]: 17.2%
inhibition at 36 ppm ([2]; final concentration 36 ppm): 26.2%
inhibition at 72 ppm ([2]; final concentration 72 ppm): 29.4%
inhibition at 109 ppm ([2]; final concentration 109 ppm): 54%
inhibition at 127 ppm ([2]; final concentration 127 ppm): 60.9%
inhibition at 145 ppm ([2]; final concentration 145 ppm): 55.8%
inhibition at 18 ppm [3]: 5.3%
inhibition at 36 ppm ([3]; final concentration 36 ppm): < 0%
inhibition at 72 ppm ([3]; final concentration 72 ppm): 29.7%
inhibition at 109 ppm ([3]; final concentration 109 ppm): 33.5%
inhibition at 127 ppm ([3]; final concentration 127 ppm): 33.7%
inhibition at 145 ppm ([3]; final concentration 145 ppm): 37.7%

CCCCc1cc(O)ccc1O [j, 2-Butylhydroquinone]
inhibition at 22 ppm [2]: 16.3%
inhibition at 44 ppm [2]: 14.1%
inhibition at 89 ppm ([2]; final concentration 89 ppm): 42.1%
inhibition at 133 ppm ([2]; final concentration 133 ppm): 57.3%
inhibition at 155 ppm ([2]; final concentration 155 ppm): 63.9%
inhibition at 177 ppm ([2]; final concentration 177 ppm): 75.4%
inhibition at 22 ppm [3]: 8.5%
inhibition at 44 ppm [3]: < 0%
inhibition at 89 ppm ([3]; final concentration 89 ppm): 0.8%
inhibition at 133 ppm ([3]; final concentration 133 ppm): < 0%
inhibition at 155 ppm ([3]; final concentration 155 ppm): < 0%
inhibition at 177 ppm ([3]; final concentration 177 ppm): < 0%

CC(C)(C)C1=CC(=O)C=CC1=O [k, tert-Butylbenzoquinone]
inhibition at 22 ppm [2]: < 0%
inhibition at 44 ppm [2]: < 0%
inhibition at 88 ppm ([2]; final concentration 88 ppm): < 0%
inhibition at 131 ppm ([2]; final concentration 131 ppm): < 0%
inhibition at 154 ppm ([2]; final concentration 154 ppm): 26.2%
inhibition at 175 ppm ([2]; final concentration 175 ppm): 30.3%
inhibition at 22 ppm [3]: 8.9%
inhibition at 44 ppm [3]: < 0%
inhibition at 88 ppm ([3]; final concentration 88 ppm): < 0%
inhibition at 131 ppm ([3]; final concentration 131 ppm): < 0%
inhibition at 154 ppm ([3]; final concentration 154 ppm): < 0%
inhibition at 175 ppm ([3]; final concentration 175 ppm): < 0%
